Reference: US9255100B2 (BAYER INTELLECTUAL PROPERTY GMBH, priority 2010, dated 2016)

Target: T1, N-terminally GST-tagged human full length recombinant Mps-1 kinase (Homo sapiens, UniProt P33981)
T1 construct: N-terminally GST-tagged human full length recombinant Mps-1 kinase; purchased Invitrogen, Karslruhe, Germany PV4071
T1 sequence (P33981 1-857): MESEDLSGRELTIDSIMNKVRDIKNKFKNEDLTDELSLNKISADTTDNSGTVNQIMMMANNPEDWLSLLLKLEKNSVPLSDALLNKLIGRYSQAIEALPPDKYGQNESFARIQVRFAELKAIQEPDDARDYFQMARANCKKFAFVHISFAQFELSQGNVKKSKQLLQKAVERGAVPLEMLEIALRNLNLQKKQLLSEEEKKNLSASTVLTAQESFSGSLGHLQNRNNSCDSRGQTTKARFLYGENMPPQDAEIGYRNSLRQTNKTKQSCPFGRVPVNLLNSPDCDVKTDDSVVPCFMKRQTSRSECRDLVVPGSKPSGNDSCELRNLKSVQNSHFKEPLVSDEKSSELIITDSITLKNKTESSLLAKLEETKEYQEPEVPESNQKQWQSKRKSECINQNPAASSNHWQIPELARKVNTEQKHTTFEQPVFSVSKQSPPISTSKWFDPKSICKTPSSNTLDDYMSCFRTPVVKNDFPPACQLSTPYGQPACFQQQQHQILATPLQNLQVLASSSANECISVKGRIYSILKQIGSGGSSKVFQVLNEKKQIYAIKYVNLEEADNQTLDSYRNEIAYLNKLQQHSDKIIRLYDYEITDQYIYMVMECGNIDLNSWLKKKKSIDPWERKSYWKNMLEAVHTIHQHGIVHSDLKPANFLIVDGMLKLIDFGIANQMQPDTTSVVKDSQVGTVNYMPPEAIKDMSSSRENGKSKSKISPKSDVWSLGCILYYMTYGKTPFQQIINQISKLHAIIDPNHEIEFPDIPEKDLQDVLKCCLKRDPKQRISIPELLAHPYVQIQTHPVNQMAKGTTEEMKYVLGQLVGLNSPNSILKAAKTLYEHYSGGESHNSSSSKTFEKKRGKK
Experiment: Mps-1 kinase assay (TR-FRET)
Format: biochemical
Conditions: Mps1 IC50 [nM], 10 μM ATP, 1 μM peptide substrate, 60 min at 22° C.
In short: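 GST-Mps-1 (full length, N-term tag) ~1 nM final, linear-range adjusted per lot; biotinylated peptide substrate. Detection: Eu-anti-pSer/Thr donor → SA-XLent acceptor TR-FRET, 1 h, 22° C. Inhibition of kinase activity.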

Row | SMILES | IC50 [nM]
1 | O=C(NC1CC1)c1ccc(-c2cnc3c(NCc4cccs4)cc(Cl)nn23)cc1Cl [Example 187, 2-Chloro-4-{6-chloro-8-[(thiophen-2-ylmethyl)amino]imidazo[1,2-b]pyridazin-3-yl}-N-cyclopropyl-benzamide] | 49.8
2 | Cc1cc(-c2cnc3c(NCC(C)(C)O)cc(-c4cccnc4)nn23)ccc1C(=O)NC1CC1 [Example 156, N-cyclopropyl-4-{8-[(2-hydroxy-2-methylpropyl)amino]-6-(pyridin-3-yl)imidazo[1,2-b]pyridazin-3-yl}-2-methylbenzamide] | 5.1
3 | Cc1cc(-c2cnc3c(NCC4CCS(=O)(=O)CC4)cc(Oc4cccnc4)nn23)ccc1C(=O)NC1CC1 [Example 296A, N-cyclopropyl-4-[8-{[(1,1-dioxidotetrahydro-2H-thiopyran-4-yl)methyl]amino}-6-(pyridin-3-yloxy)imidazo[1,2-b]pyridazin-3-yl]-2-methylbenzamide] | 0.5
4 | COc1cc(C(=O)NC2CC2)ccc1-c1cnc2c(NCC(C)(C)O)cc(-c3ccnn3C)nn12 [Example 50, N-cyclopropyl-4-{8-[(2-hydroxy-2-methylpropyl)amino]-6-(1-methyl-1H-pyrazol-5-yl)imidazo[1,2-b]pyridazin-3-yl}-3-methoxybenzamide] | 84.8
5 | Cc1cc(-c2cnc3c(NCC(C)(C)O)cc(-c4ccc(F)cc4C)nn23)ccc1C(=O)NC1CC1 [Example 232, N-cyclopropyl-4-{6-(4-fluoro-2-methylphenyl)-8-[(2-hydroxy-2-methylpropyl)amino]imidazo[1,2-b]pyridazin-3-yl}-2-methylbenzamide] | 1
6 | Cc1cc(-c2cnc3c(NCC(C)(C)O)cc(Oc4ccccc4)nn23)ccc1C(=O)NC1CC1 [Example 76, N-cyclopropyl-4-{8-[(2-hydroxy-2-methylpropyl)amino]-6-phenoxyimidazo[1,2-b]pyridazin-3-yl}-2-methylbenzamide] | < 0.7
7 | Cc1cc(-c2cnc3c(NCC4CN(C)CCO4)cc(Sc4ccccc4)nn23)ccc1C(=O)NC1CC1 (racemic) [Example 56, (RS)—N-cyclopropyl-2-methyl-4-[8-{[(4-methylmorpholin-2-yl)methyl]amino}-6-(phenylsulfanyl)imidazo[1,2-b]pyridazin-3-yl]benzamide] | < 1
8 | Cc1cccc(-c2cc(NCC(C)C)c3ncc(-c4ccc(C(=O)NC5CC5)cc4)n3n2)c1C [Example 106, N-cyclopropyl-4-{6-(2,3-dimethylphenyl)-8-[(2-methylpropyl)amino]imidazo[1,2-b]pyridazin-3-yl}benzamide] | 8.9
9 | Cc1cc(-c2cnc3c(NCC(C)C)cc(C(=O)NCCO)nn23)ccc1C(=O)NC1CC1 [Example 199, 3-[4-(Cyclopropylcarbamoyl)-3-methylphenyl]-N-(2-hydroxyethyl)-8-[(2-methylpropyl)amino]imidazo[1,2-b]pyridazine-6-carboxamide] | 6.9
10 | Cc1cc(Sc2cc(NCC(C)(C)O)c3ncc(-c4ccc(C(=O)NC5CC5)c(C)c4)n3n2)ccc1F [Example 65, N-cyclopropyl-4-{6-[(4-fluoro-3-methylphenyl)sulfanyl]-8-[(2-hydroxy-2-methylpropyl)amino]imidazo[1,2-b]pyridazin-3-yl}-2-methylbenzamide] | 0.7
11 | CC(C)CNc1cc(-c2ccccc2F)nn2c(-c3ccc(C(=O)NC4CC4)cc3)cnc12 [Example 132, N-cyclopropyl-4-{6-(2-fluorophenyl)-8-[(2-methylpropyl)amino]imidazo[1,2-b]pyridazin-3-yl}benzamide] | 1.5

The next lines start with the values.

Row | IC50 [nM] | SMILES
12 | 0.1 | COc1ccc(Nc2cc(NCCC(F)(F)F)c3ncc(-c4ccc(C(=O)NC5CC5)c(C)c4)n3n2)cn1 [Example 429, N-cyclopropyl-4-{6-[(6-methoxypyridin-3-yl)amino]-8-[(3,3,3-trifluoropropyl)amino]imidazo[1,2-b]pyridazin-3-yl}-2-methylbenzamide]
13 | 0.1 | Cc1cc(-c2cnc3c(NCC(C)(C)O)cc(Nc4ccccc4O)nn23)ccc1C(=O)NC1CC1 [Example 431, N-cyclopropyl-4-{8-[(2-hydroxy-2-methylpropyl)amino]-6-[(2-hydroxyphenyl)amino]imidazo[1,2-b]pyridazin-3-yl}-2-methylbenzamide]
14 | 0.5 | Cc1cc(-c2cnc3c(NCCC(F)(F)F)cc(Oc4cccc(C(C)C)c4O)nn23)ccc1C(=O)NC1CC1 [Example 441, N-cyclopropyl-4-{6-[2-hydroxy-3-(propan-2-yl)phenoxy]-8-[(3,3,3-trifluoropropyl)amino]imidazo[1,2-b]pyridazin-3-yl}-2-methylbenzamide]
15 | 0.3 | Cc1ccc(Cl)cc1Nc1cc(NCC(C)(C)O)c2ncc(-c3ccc(C(=O)NC4CC4)c(C)c3)n2n1 [Example 404, 4-{6-[(5-chloro-2-methylphenyl)amino]-8-[(2-hydroxy-2-methylpropyl)amino]imidazo[1,2-b]pyridazin-3-yl}-N-cyclopropyl-2-methylbenzamide]
16 | 0.2 | Cc1cc(-c2cnc3c(NCC(C)(C)N(C)C)cc(Oc4cccc(F)c4)nn23)ccc1C(=O)NC1CC1 [Example 497, N-cyclopropyl-4-[8-{[2-(dimethyl-amino)-2-methylpropyl]amino}-6-(3-fluorophenoxy)imidazo [1,2-b]pyridazin-3-yl]-2-methyl-benzamide]
17 | 0.3 | Cc1cccc(Nc2cc(NCCC(F)(F)F)c3ncc(-c4ccc(C(=O)NC5CC5)c(C)c4)n3n2)c1 [Example 423, N-cyclopropyl-2-methyl-4-{6-[(3-methylphenyl)amino]-8-[(3,3,3-trifluoropropyl)amino]imidazo[1,2-b]pyridazin-3-yl}benzamide]
18 | 0.4 | Cc1cc(-c2cnc3c(NCCC(F)(F)F)cc(Sc4ccc(Cl)cc4CO)nn23)ccc1C(=O)NC1CC1 [Example 392, 4-(6-{[4-chloro-2-(hydroxymethyl)phenyl]sulfanyl}-8-[(3,3,3-trifluoropropyl)amino]imidazo[1,2-b]pyridazin-3-yl)-N-cyclopropyl-2-methylbenzamide]
19 | 0.2 | Cc1cc(-c2cnc3c(NC[C@H]4CC[S@+]([O-])CC4)cc(Oc4cccnc4)nn23)ccc1C(=O)NC1CC1 [Example 296C, N-cyclopropyl-2-methyl-4-[8-({[(trans)-1-oxidotetrahydro-2H-thiopyran-4-yl]methyl}amino)-6-(pyridin-3-yloxy)imidazo[1,2-b]pyridazin-3-yl]benzamide]
20 | 0.2 | Cc1ccc(Oc2cc(NCCC(F)(F)F)c3ncc(-c4ccc(C(=O)NC5CC5)c(C)c4)n3n2)cc1 [Example 479, N-cyclopropyl-2-methyl-4-{6-(4-methylphenoxy)-8-[(3,3,3-trifluoro-propyl)amino]imidazo [1,2-b]pyridazin-3-yl} benzamide]
21 | 0.2 | Cc1ccc(F)cc1Oc1cc(NCCN2CCOCC2)c2ncc(-c3ccc(C(=O)NC4CC4)c(C)c3)n2n1 [Example 537, N-cyclopropyl-4-[6-(5-fluoro-2-methylphenoxy)-8-{[2-(morpholin-4-yl)ethyl]amino}imidazo[1,2-b]pyridazin-3-yl]-2-methylbenzamide]
22 | 6.9 | Cc1cc(-c2cnc3c(NCC(C)(C)O)cc(-c4ccc(F)cc4CO)nn23)ccc1C(=O)NC1CC1 [Example 299, N-cyclopropyl-4-{6-[4-fluoro-2-(hydroxymethyl)phenyl]-8-[(2-hydroxy-2-methylpropyl)amino]imidazo[1,2-b]pyridazin-3-yl}-2-methylbenzamide]
23 | 0.2 | Cc1cc(-c2cnc3c(NCC4CCS(=O)(=O)CC4)cc(Sc4cccc(F)c4)nn23)ccc1C(=O)NC1CC1 [Example 301, N-cyclopropyl-4-(8-{[(1,1-dioxidotetrahydro-2H-thiopyran-4-yl)methyl]amino}-6-[(3-fluorophenyl)sulfanyl]imidazo[1,2-b]pyridazin-3-yl)-2-methylbenzamide]
24 | 0.2 | Cc1cc(-c2cnc3c(NCC4CN(C)C4)cc(Oc4cccc(F)c4F)nn23)ccc1C(=O)NC1CC1 [Example 543, N-cyclopropyl-4-[6-(2,3-difluorophenoxy)-8-{[(1-methylazetidin-3-yl)methyl]amino}imidazo[1,2-b]pyridazin-3-yl]-2-methylbenzamide]
25 | 0.2 | CNc1cc(N(C)c2ccccc2O)nn2c(-c3ccc(C(=O)NC4CC4)c(C)c3)cnc12 [Example 532, N-cyclopropyl-4-{6-[(2-hydroxyphenyl)(methyl)amino]-8-(methylamino)imidazo[1,2-b]pyridazin-3-yl}-2-methylbenzamide]
26 | 0.2 | CC(=O)NCCNc1cc(Oc2cccc(F)c2)nn2c(-c3ccc(C(=O)NC4CC4)c(C)c3)cnc12 [Example 504, 4-[8-{[2-(acetylamino)ethyl]amino}-6-(3-fluorophenoxy)imidazo[1,2-b]pyridazin-3-yl]-N-cyclopropyl-2-methyl-benzamide]
